Data on four compounds can be found in patent US20150292026A1, “METHYLATION MARKERS PREDICTIVE FOR DRUG RESPONSE” (MDxHEALTH SA, priority 2012, published 2015).

Like-named read-outs stand apart in the source and are kept apart here.

The test system of assay [1] is HCT116 cells. The assay is described as follows: Re-expression of DCR1 (qRT-PCR) in HCT116 after inhibition of DNA methyltransferases. The class given is cell-based, Human. The following applies: HCT116 (65% methylated for DCR1), 5000 nM for 3 days, p=0.005.
Experimental: To investigate re-expression of DCR1 after inhibition of DNA metyltransferases, HCT116 cells were treated with 5000 nM 5-aza-2′-deoxycytidine for 3 days (DAC, Sigma Chemical Co., St. Louis. Mo., USA).
Total RNA was isolated using TriZoI reagent (Invitrogen, Breda, The Netherlands), and subjected to purification using RNeasy Mini Kit (Qiagen). After DNAse treatment (RQI DNAse, Promega, Leiden, The Netherlands). cDNA was made with the Iscript cDNA Synthesis Kit (BioRad, Veenendaal, The Netherlands). Quantitative RT-PCR was done using TaqMan® Gene Expression Assays from Applied Biosystems directed to DCR1 (Hs00182570_m1) and B2M (Hs00984230_m1). Relative expression levels were determined by calculating the Ct-ratio (Ct ratio=2̂−(Ct DCR1−Ct B2M)).
Student's T-test was used for comparison of DCR1 expression levels before and after DAC and TSA treatment of HCT116.
Assay [2] deals with patients with metastatic CRC. The following applies: first-line therapy, discovery set; for HR (methylated vs unmethylated): PFS.
For assay [3], the system named is patients with metastatic CRC. Nature of the assay: CAIRO arm A: response to single agent irinotecan in second line by DCR1 methylation. The settings on record: 65 patients from arm A, data not shown. The class given is in vivo, human.
For assay [4], the system named is patients with CRC (CAIROII). The settings on record: CAIRO II patients, estimate from literature; cited from earlier work.

As to `Nc1ncn([C@H]2C[C@H](O)[C@@H](CO)O2)c(=O)n1` [5-aza-2′-deoxycytidine], the “DCR1 expression (qRT-PCR) after treatment” value in assay [1] is given as “significant increased DCR1 expression”.
Take `CCCCCOC(=O)Nc1nc(=O)n([C@@H]2O[C@H](C)[C@@H](O)[C@H]2O)cc1F` [Capecitabine]: the “HR (methylated vs unmethylated)” value in assay [2] (BK methylation) came out at 1.1; in assay [2] (CAT methylation), 0.9; in assay [2] (CCND2 methylation), 1.3; in assay [2] (CDK5 methylation), 0.7; in assay [2] (DAPK1 methylation), 1.0; in assay [2] (DCR1 methylation) it was 1.4. Also, the “HR (methylated vs unmethylated)” value came to 1.2 in assay [2] (EEF1A2 (1 assay methylation)); 1.3 in assay [2] (EEF1A2 (2 assay methylation)); 0.8 in assay [2] (HOXA9 methylation); 1.6 in assay [2] (IRAK1 methylation); 1.2 in assay [2] (LIG4 methylation); 1.5 in assay [2] (NUDT1 methylation). The “HR (methylated vs unmethylated)” value in assay [2] (PAX3 (1) assay methylation) was 1.2; in assay [2] (PAX3 (2) assay methylation), 1.3; in assay [2] (PRKCB1 methylation) it was 1.1; in assay [2] (PROK2 methylation), 0.8; in assay [2] (PROP1 methylation) it was 2.0; in assay [2] (PTGS2 methylation), 1.1. Further, the “HR (methylated vs unmethylated)” value in assay [2] (RASSF1 methylation) came out at 1.2; in assay [2] (RBBP8 methylation), 0.9; in assay [2] (RHOB methylation), 0.7; in assay [2] (SPO11 methylation), 1.4; in assay [2] (TBX5 methylation) it was 2.3; in assay [2] (TIPARP methylation), 0.9. The “Median PFS” value is reported as 149 days in assay [2] (BK methylated (M) tumours); 188 days in assay [2] (BK unmethylated (U) tumours); 116 days in assay [2] (CAT methylated (M) tumours); 190 days in assay [2] (CAT unmethylated (U) tumours); 202 days in assay [2] (CCND2 methylated (M) tumours); 156 days in assay [2] (CCND2 unmethylated (U) tumours). Moreover, the “Median PFS” value in assay [2] (CDK5 methylated (M) tumours) was found to be 125 days; in assay [2] (CDK5 unmethylated (U) tumours) it was 191 days; in assay [2] (DAPK1 methylated (M) tumours) it was 144 days; in assay [2] (DAPK1 unmethylated (U) tumours) it was 188 days; in assay [2] (DCR1 methylated (M) tumours) it was 184 days; in assay [2] (DCR1 unmethylated (U) tumours), 178 days. The “Median PFS” value is listed as 202 days in assay [2] (EEF1A2 (1 assay methylated (M) tumours)); 168 days in assay [2] (EEF1A2 (1 assay unmethylated (U) tumours)); 246 days in assay [2] (EEF1A2 (2 assay methylated (M) tumours)); 177 days in assay [2] (EEF1A2 (2 assay unmethylated (U) tumours)); 168 days in assay [2] (HOXA9 methylated (M) tumours); 191 days in assay [2] (HOXA9 unmethylated (U) tumours). The “Median PFS” value in assay [2] (IRAK1 methylated (M) tumours) is on record as 216 days; in assay [2] (IRAK1 unmethylated (U) tumours), 130 days; in assay [2] (LIG4 methylated (M) tumours) it was 173 days; in assay [2] (LIG4 unmethylated (U) tumours) it was 190 days; in assay [2] (NUDT1 methylated (M) tumours), 187 days; in assay [2] (NUDT1 unmethylated (U) tumours), 99 days. For the same compound, the “Median PFS” value amounted to 189 days in assay [2] (PAX3 (1) assay methylated (M) tumours); 126 days in assay [2] (PAX3 (1) assay unmethylated (U) tumours); 187 days in assay [2] (PAX3 (2) assay methylated (M) tumours); 127 days in assay [2] (PAX3 (2) assay unmethylated (U) tumours); 192 days in assay [2] (PRKCB1 methylated (M) tumours); 168 days in assay [2] (PRKCB1 unmethylated (U) tumours). Besides, the “Median PFS” value in assay [2] (PROK2 methylated (M) tumours) was found to be 182 days; in assay [2] (PROK2 unmethylated (U) tumours) it was 179 days; in assay [2] (PROP1 methylated (M) tumours) it was 188 days; in assay [2] (PROP1 unmethylated (U) tumours), 99 days; in assay [2] (PTGS2 methylated (M) tumours), 202 days; in assay [2] (PTGS2 unmethylated (U) tumours), 168 days. The “Median PFS” value in assay [2] (RASSF1 methylated (M) tumours) was determined as 209 days; in assay [2] (RASSF1 unmethylated (U) tumours) it was 164 days; in assay [2] (RBBP8 methylated (M) tumours) it was 191 days; in assay [2] (RBBP8 unmethylated (U) tumours), 177 days; in assay [2] (RHOB methylated (M) tumours), 112 days; in assay [2] (RHOB unmethylated (U) tumours), 188 days. For the same compound, the “Median PFS” value in assay [2] (SPO11 methylated (M) tumours) turned out to be 177 days; in assay [2] (SPO11 unmethylated (U) tumours) it was 190 days; in assay [2] (TBX5 methylated (M) tumours), 188 days; in assay [2] (TBX5 unmethylated (U) tumours) it was 65 days; in assay [2] (TIPARP methylated (M) tumours), 177 days; in assay [2] (TIPARP unmethylated (U) tumours), 187 days.
In the case of `CCc1c2c(nc3ccc(OC(=O)N4CCC(N5CCCCC5)CC4)cc13)-c1cc3c(c(=O)n1C2)COC(=O)[C@]3(O)CC` [irinotecan, Irinotecan], the “association of DCR1 methylation with response to single agent second-line therapy” value in assay [3] is on record as “a similar trend was observed, although not statistically significant”.
For the compound “bevacuzimab: targeted therapy directed against VEGF”, in assay [4], the “survival benefit from bevacizumab” value was “about two”.
